This note sets out measurements from US9133158B2, “Bicyclic dihydroisoquinoline-1-one derivatives” (Hoffmann-La Roche Inc., priority 2011, dated 2015).

One may read the EC50 as the concentration at which the effect is half-maximal. Higher therefore signals lower potency in that assay.

The target in assay [1] is T1, human CYP11B2 (Homo sapiens, UniProt P19099).
T1 construct: expressed in transfected cells
T1 sequence (P19099 25-503): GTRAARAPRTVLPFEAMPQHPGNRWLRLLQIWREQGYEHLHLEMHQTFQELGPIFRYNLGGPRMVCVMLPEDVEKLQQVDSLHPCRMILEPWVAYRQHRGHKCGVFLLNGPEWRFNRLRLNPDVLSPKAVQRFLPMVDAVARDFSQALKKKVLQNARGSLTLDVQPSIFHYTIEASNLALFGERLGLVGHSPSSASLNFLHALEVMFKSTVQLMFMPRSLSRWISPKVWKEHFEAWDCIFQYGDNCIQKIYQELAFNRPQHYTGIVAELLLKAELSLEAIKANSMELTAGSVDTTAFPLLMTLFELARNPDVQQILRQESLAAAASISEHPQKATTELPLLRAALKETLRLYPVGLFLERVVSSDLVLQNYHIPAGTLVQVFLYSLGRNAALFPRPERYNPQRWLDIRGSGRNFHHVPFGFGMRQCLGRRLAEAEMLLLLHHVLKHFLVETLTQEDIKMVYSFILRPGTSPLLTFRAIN
The assay is described as follows: G-402 cellular enzyme assay, human CYP11B2 (aldosterone release, HTRF). The class given is cell-based. As to conditions: G-402 cells, 1 μM Deoxycorticosterone. In outline:
(§1)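 Inhibition of steroid release was taken as enzyme inhibition. CYP11B1 assays used 1 μM deoxycortisol with cortisol detection, CYP11B2 assays 1 μM deoxycorticosterone with aldosterone detection, both by HTRF after 16 h in stable G-402 cells; EC50 from least-squares MMF fit.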

For assay [2], the target named is T2, human CYP11B1 (Homo sapiens, UniProt P15538).
T2 construct: expressed in transfected cells
T2 sequence (P15538 25-503): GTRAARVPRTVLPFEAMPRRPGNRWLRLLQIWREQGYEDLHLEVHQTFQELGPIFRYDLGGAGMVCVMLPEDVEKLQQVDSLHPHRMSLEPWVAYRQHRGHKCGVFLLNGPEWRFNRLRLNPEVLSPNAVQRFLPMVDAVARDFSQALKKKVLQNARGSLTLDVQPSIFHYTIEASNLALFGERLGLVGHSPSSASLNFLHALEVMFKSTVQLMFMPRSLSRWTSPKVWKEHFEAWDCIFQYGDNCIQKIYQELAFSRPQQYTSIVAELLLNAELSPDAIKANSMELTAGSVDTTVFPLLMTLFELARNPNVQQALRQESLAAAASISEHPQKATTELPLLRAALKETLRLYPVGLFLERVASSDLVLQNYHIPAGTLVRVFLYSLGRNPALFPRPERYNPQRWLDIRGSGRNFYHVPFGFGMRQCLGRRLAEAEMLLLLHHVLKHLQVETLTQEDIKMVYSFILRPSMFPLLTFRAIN
The assay is described as follows: G-402 cellular enzyme assay, human CYP11B1 (cortisol release, HTRF). The class given is cell-based. As to conditions: G-402 cells, 1 μM Deoxycortisol. In outline: as §1
On the technique in general: In TR-FRET formats the signal depends on donor and acceptor labels being close together.

For `O=C1c2ccc(Cl)cc2CCN1c1cnccc1C(O)c1ccc(F)cc1` (stereo not drawn) [Example 63, 6-Chloro-2-{4-[(4-fluoro-phenyl)-hydroxy-methyl]-pyridin-3-yl}-3,4-dihydro-2H-isoquinolin-1-one], the EC50 in assay [1] was 448 nM; in assay [2], 4430 nM.
The corresponding values for `CCS(=O)(=O)NCc1cncc(N2Cc3cc(Cl)ccc3C2=O)c1` [Example 115, Ethanesulfonic acid [5-(5-chloro-1-oxo-1,3-dihydro-isoindol-2-yl)-pyridin-3-ylmethyl]-amide] are 682 nM and 13500 nM.
On to `O=C1c2ccc(Cl)cc2CCN1c1cncc(COCC2CCCO2)c1` (stereo not drawn) [Example 201, 6-Chloro-2-[5-(tetrahydro-furan-2-ylmethoxymethyl)-pyridin-3-yl]-3,4-dihydro-2H-isoquinolin-1-one], for which the EC50 in assay [1] stood at 30.4 nM; in assay [2] it was 293 nM.
As for `COc1cncc(N2CC(C)c3cc(Cl)ccc3C2=O)c1` (stereo not drawn) [Example 107, 6-Chloro-2-(5-methoxy-pyridin-3-yl)-4-methyl-3,4-dihydro-2H-isoquinolin-1-one], the concentration for a half-maximal effect (EC50) came out at 63.5 nM in assay [1] and 770 nM in assay [2].
The matching figures for `COc1ccc2c(n1)CCN(c1cccnc1)C2=O` [Example 98, 2-Methoxy-6-pyridin-3-yl-7,8-dihydro-6H-[1,6]naphthyridin-5-one]: 227 nM and 6830 nM.
The corresponding values for `NC(=O)COc1cncc(N2CCc3cc(Cl)ccc3C2=O)c1` [Example 253, 2-[5-(6-Chloro-1-oxo-3,4-dihydro-1H-isoquinolin-2-yl)-pyridin-3-yloxy]-acetamide] are 581 nM and 10000 nM.
The matching figures for `CC1(C)c2cc(Cl)ccc2C(=O)N1c1cncc(OC2CN(S(C)(=O)=O)C2)c1` [Example 452, 5-Chloro-2-[5-(1-methanesulfonyl-azetidin-3-yloxy)-pyridin-3-yl]-3,3-dimethyl-2,3-dihydro-isoindol-1-one]: 26.8 nM and 1740 nM.
Turning to `Cn1nccc1CNc1cncc(N2CCc3cc(Cl)ccc3C2=O)c1` [Example 226, 6-Chloro-2-{5-[(2-methyl-2H-pyrazol-3-ylmethyl)-amino]-pyridin-3-yl}-3,4-dihydro-2H-isoquinolin-1-one], the half-maximal effective concentration (EC50) in assay [1] stood at 53.4 nM; in assay [2] it was 3400 nM.
The matching figures for `O=C(c1cncc(N2CCc3cc(Cl)ccc3C2=O)c1)N1CCOCC1` [Example 39, 6-Chloro-2-[5-(morpholine-4-carbonyl)-pyridin-3-yl]-3,4-dihydro-2H-isoquinolin-1-one]: 1090 nM and 10000 nM.
The matching figures for `COc1cncc(N2CCc3nc(O)ccc3C2=O)c1` [Example 139, 2-Hydroxy-6-(5-methoxy-pyridin-3-yl)-7,8-dihydro-6H-[1,6]naphthyridin-5-one]: 953 nM and 11200 nM.
The corresponding values for `CCC(=O)N1CCCC(c2cncc(N3C(=O)c4ccc(Cl)cc4C3(C)C)n2)C1` (stereo not drawn) [Example 463, 5-Chloro-3,3-dimethyl-2-[6-(1-propionyl-piperidin-3-yl)-pyrazin-2-yl]-2,3-dihydro-isoindol-1-one] are 47.1 nM and 932 nM.
For the compound `Cc1cnn(Cc2cncc(N3CCc4cc(Cl)ccc4C3=O)c2)c1` [Example 187, 6-Chloro-2-[5-(4-methyl-pyrazol-1-ylmethyl)-pyridin-3-yl]-3,4-dihydro-2H-isoquinolin-1-one], the concentration for a half-maximal effect (EC50) came out at 137 nM in assay [1] and 2230 nM in assay [2].
Take `CS(=O)(=O)NC1CCCc2c1cncc2N1CCc2cc(Cl)ccc2C1=O` (single isomer, unassigned) [Example 325, N-((R or S)-6-Chloro-1-oxo-3,4,5′,6′,7′,8′-hexahydro-1H-[2,4′]biisoquinolinyl-8′-yl)-methanesulfonamide]: the half-maximal effective concentration (EC50) in assay [1] turned out to be 59.2 nM; in assay [2] it was 4490 nM.
For the compound `CC(=O)N[C@@H]1CCCc2c1cncc2N1C(=O)c2ccc(Cl)cc2[C@H]1C` (single isomer, unassigned) [Example 364, N-[(R or S)-4-((R or S)-5-Chloro-3-methyl-1-oxo-1,3-dihydro-isoindol-2-yl)-5,6,7,8-tetrahydro-isoquinolin-8-yl]-acetamide], the EC50 amounted to 130 nM in assay [1] and 5570 nM in assay [2].
The corresponding values for `O=C1c2ccc(Cl)cc2CN1c1cncc2c1CCCC2O` (stereo not drawn) [Example 117, 5-Chloro-2-(8-hydroxy-5,6,7,8-tetrahydro-isoquinolin-4-yl)-2,3-dihydro-isoindol-1-one] are 127 nM and 894 nM.
The corresponding values for `O=C(Nc1cncc(N2CCc3cc(Cl)ccc3C2=O)c1)Nc1cccc(C(F)(F)F)c1` [Example 251, 1-[5-(6-Chloro-1-oxo-3,4-dihydro-1H-isoquinolin-2-yl)-pyridin-3-yl]-3-(3-trifluoromethyl-phenyl)-urea] are 5880 nM and 15800 nM.
The matching figures for `CCS(=O)(=O)NCc1cncc(N2C(=O)c3ccc(C#N)cc3C2(C)C)c1` [Example 389, Ethanesulfonic acid [5-(6-cyano-1,1-dimethyl-3-oxo-1,3-dihydro-isoindol-2-yl)-pyridin-3-ylmethyl]-amide]: 115 nM and 2950 nM.
For `O=C1c2ccc(Cl)cc2C2(CC2)N1c1cnccc1Cl` [Example 305, 6′-Chloro-2′-(4-chloropyridin-3-yl)spiro[cyclopropane-1,1′-isoindol]-3′(2′H)-one], the EC50 in assay [1] is 5.4 nM; in assay [2] it was 860 nM.
The corresponding values for `CC[C@@H]1c2cc(Cl)ccc2C(=O)N1c1cncc2c1CC[C@@H]2NC(C)=O` (single isomer, unassigned) [Example 342, (+)-N—[(S or R)-4-((R or S)-5-Chloro-3-ethyl-1-oxo-1,3-dihydro-isoindol-2-yl)-6,7-dihydro-5H-[2]pyrindin-7-yl]-acetamide] are 15.1 nM and 94.7 nM.
On to `CS(=O)(=O)c1ccc(Cc2cncc(N3CCc4cc(Cl)ccc4C3=O)c2)cc1` [Example 205, 6-Chloro-2-[5-(4-methanesulfonyl-benzyl)-pyridin-3-yl]-3,4-dihydro-2H-isoquinolin-1-one], for which the values for the half-maximal effective concentration (EC50) in assay [1] and in assay [2] were 0.5 nM and 0.6 nM, respectively.
The matching figures for `O=C1c2ccc(Cl)cc2CCN1c1cncc(-c2cnoc2)c1` [Example 243, 6-Chloro-2-(5-isoxazol-4-yl-pyridin-3-yl)-3,4-dihydro-2H-isoquinolin-1-one]: 268 nM and 3340 nM.
Regarding `O=C1c2ccc(Cl)cc2CCN1c1cncc(CCO)c1` [Example 23, 6-Chloro-2-[5-(2-hydroxy-ethyl)-pyridin-3-yl]-3,4-dihydro-2H-isoquinolin-1-one], the figures for the EC50 in assay [1] and in assay [2] were 64 nM and 571 nM, respectively.
The matching figures for `CC(=O)N[C@H]1CCCc2c1cncc2N1C(=O)c2ccc(Cl)cc2[C@@H]1C` (single isomer, unassigned) [Example 365, N-[(S or R)-4-((S or R)-5-Chloro-3-methyl-1-oxo-1,3-dihydro-isoindol-2-yl)-5,6,7,8-tetrahydro-isoquinolin-8-yl]-acetamide]: 337 nM and 15900 nM.
The corresponding values for `COc1cncc(N2C(=O)c3ccc(Cl)cc3C2(C)C)c1` [Example 130, 5-Chloro-2-(5-methoxy-pyridin-3-yl)-3,3-dimethyl-2,3-dihydro-isoindol-1-one] are 15.5 nM and 240 nM.
The corresponding values for `O=C1c2ccc(Cl)cc2CCN1c1cncc(CO)c1` [Example 3, 6-Chloro-2-(5-hydroxymethyl-pyridin-3-yl)-3,4-dihydro-2H-isoquinolin-1-one] are 96.5 nM and 3720 nM.
In the case of `CS(=O)(=O)NCc1cncc(N2C(=O)c3cc(F)ccc3C23CC3)c1` [Example 401, N-{[5-(5′-Fluoro-3′-oxospiro [cyclopropane-1,1′-isoindol]-2′(3′H)-yl)pyridin-3-yl]methyl} methane-sulfonamide], the EC50 was 360 nM in assay [1] and 9100 nM in assay [2].
On to `CCC1c2cc(Cl)ccc2C(=O)N1c1cncc2c1CCCC2NS(C)(=O)=O` (mixture of isomers) [Example 346, N-[4-(5-Chloro-3-ethyl-1-oxo-1,3-dihydro-isoindol-2-yl)-5,6,7,8-tetrahydro-isoquinolin-8-yl]-methanesulfonamide], for which the results for the EC50 in assay [1] and in assay [2] were 26.3 nM and 2570 nM, respectively.
